Among the data in PubChem BioAssay (NCI) are TGI and GI50 values, retold here.

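1) Cells in 96-well plates. 2) Compound, 48 h, 5 concentrations. 3) Linear interpolation between surrounding doses. 4) Unreached endpoint = highest concentration. Abbreviation: GI50, concentration required for 50% inhibition of growth. TGI is the concentration that stops growth completely.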

What all share (test): NCI-60 cell line screen, 48 h
In test [1] the test system is SR leukemia.
The test system of test [2] is MOLT-4 leukemia.
For test [3], the system named is NCI-H522 lung.
The test system of test [4] is SK-MEL-2 melanoma.
In test [5] the test system is CAKI-1 renal.
For test [6], the system named is HL-60(TB) leukemia.
Test [7] deals with HCT-116 colon.
The test system of test [8] is NCI-H226 lung.
The subject of test [9] is PC-3 prostate.

Consider `CC1(C)CC(=O)C(/C(=N/NC(=S)NN)C(=O)Nc2nc3ccc([N+](=O)[O-])cc3s2)C(=O)C1`, for which the TGI in [1], in test [2], in test [3], in [4], in test [5] and in [6] was above 100 µM throughout. Further, the TGI in test [7] and in test [8] was above 100 µM in each case.
As for `COC(=O)[C@@]1(C(C)CC(=O)O)CCCCC1=O` (some centres not stated), the TGI in test [1], in test [2], in test [3], in test [4], in test [5] and in test [6] was above 100 µM each time. Further, the TGI in test [7] and in test [8] was above 100 µM in each case.
As to `O=C(c1nc2ccccc2[nH]c1=O)C(O)c1ccccc1` (configuration not stated), the TGI in test [1], in test [2], in test [3], in [4], in [5] and in test [6] was above 100 µM in each case. The TGI in [7] and in test [8] was above 100 µM each time.
As to `NC(=O)c1csc(C2OC(COP(=O)(O)CP(=O)(O)OCC3OC(n4cnc5c(N)ncnc54)C(O)C3O)C(O)C2O)n1` (configuration not stated), the TGI in [2], in test [3], in test [4], in test [5], in [6] and in [8] was above 100 µM in each case.
For the molecule `CCCCCCCCCCCCC(Br)C(=O)NCC(N)=O` (configuration not stated), the TGI in test [3] worked out at 5.22 µM; in [4] it was 26.4 µM; in test [6], 31 µM; in [7], 3.72 µM; in test [8] it was 8.79 µM.
In the case of `COc1ccc(-c2cc(C(=O)Nc3ccc(C)c(C)c3)nc(NC#N)n2)cc1`, the TGI in test [2], in [3], in [4], in [5] and in test [7] was above 100 µM throughout.
On to `CCCCC1(C)C=C/C(=C2/C(=O)O/C(=C\C(=O)O)C2=O)O1` (configuration not stated), for which the TGI in test [1], in test [2], in test [4], in test [6], in test [7] and in test [8] was above 100 µM each time.
In the case of `Cc1ccc(C)c(N2C(=O)C(=O)C(c3nc4ccccc4s3)/C(=N/NC(=O)NN)C2=O)c1` (configuration not stated), the TGI in test [1], in test [2], in test [3], in test [4], in test [5] and in test [6] was above 100 µM in each case. The TGI in test [7] and in test [8] was above 100 µM throughout.
`CCN(CC)CCCCCCNc1cc(OC)cc2cccnc12`: the GI50 in test [1] was 1.99 µM; in test [2], 1.84 µM; in test [3], 2.17 µM; in [4], 17.6 µM; in [5], 12.4 µM; in [6], 1.94 µM. The GI50 in test [9] was 2.06 µM; in [7] it was 1.93 µM; in test [8], 21.3 µM. In addition, the TGI in [1] worked out at 4.1 µM; in test [2] it was 3.86 µM; in [3], 4.76 µM; in [4] it was 32.6 µM; in test [5], 26.6 µM; in [6], 4.03 µM. For the same molecule, the TGI was 4.1 µM in test [9], 3.55 µM in [7] and 43.2 µM in test [8].
With `CC1(c2ccccc2Cl)C(C#N)C(=O)NC(=O)C1C#N` (configuration not stated), the TGI in [2] is above 100 µM; in test [3] it was 54 µM; in [4] it was above 100 µM; in [5], above 100 µM; in [6], 48.5 µM; in [8], 98 µM.
Consider `C=C1CCC2[C@@H](CCC3[C@]2(C)CCC[C@]3(C)C(=O)OC)C1CC=O` (some centres not stated), for which the GI50 in [2] is 11.2 µM; in test [3], 16.3 µM; in test [5], 16.4 µM. Also, the TGI in test [2] was 29.8 µM; in test [3] it was 31.8 µM; in test [4], 38.2 µM; in [5] it was 30.1 µM; in test [6], 40.1 µM; in [7], 29.4 µM. Besides, in test [8], the TGI came to 37.2 µM.
Consider `COc1ccc(CCC2c3cc(OC)c(OC)cc3CCN2C)cc1OC` (configuration not stated), for which the TGI in [1], in [2], in [3], in test [4], in test [5] and in test [6] was above 100 µM throughout. Further, the TGI in [7] and in [8] was above 100 µM each time.
Regarding `COCOCC/C=C/C=O`, the TGI in test [1], in [2], in test [3], in test [4], in [6] and in test [7] was above 100 µM in each case.
On to `O=C1Nc2ccccc2N=CC1NC(=O)C(c1ccccc1)c1ccccc1` (configuration not stated), for which the TGI in test [2], in [3], in test [4], in [5], in test [6] and in test [7] was above 100 µM in each case. Also, in test [8], the TGI was above 100 µM.
Turning to `N#CC(C#N)c1ccc(C(=O)N2CCC[C@H]2CO)cc1`, the TGI in [2], in test [3], in test [4], in test [5] and in test [6] was above 100 µM in each case.
Regarding `Nc1c([N+](=O)[O-])nc(Cl)c2nncn12`, the TGI is 41.9 µM in [1]; above 100 µM in test [2]; above 100 µM in test [3]; above 100 µM in test [4]; above 100 µM in test [5]; above 100 µM in test [6]. In addition, the results for the TGI in test [7] and in test [8] were above 63.9 µM and above 100 µM, respectively.
`COCCNC(=O)C1C(=O)C(=O)N(CCOC)C1=O` (configuration not stated): the TGI in [1], in test [3], in [4], in [5], in test [7] and in test [8] was above 100 µM in each case.
Consider `CC12CCC(=O)N1c1ccc([N+](=O)[O-])cc1N2` (configuration not stated), for which the TGI in test [1], in [2], in test [3], in test [4], in test [6] and in [7] was above 100 µM each time. The same molecule returned a TGI in test [8] above 100 µM.
Consider `NC(=O)NNC(=O)NC12CC3CC(CC(C3)C1)C2`, for which the TGI in [2], in test [3], in test [4], in [5], in test [6] and in test [7] was above 100 µM throughout. The molecule also showed a TGI in [8] above 100 µM.
As for `Cc1ccc(S(=O)(=O)N/N=C(/CC(=O)c2c(C)n([O-])c3ccccc3[n+]2=O)C(=O)Nc2ccccc2C)cc1`, the TGI in [1], in test [3], in [4], in [5], in test [7] and in [8] was above 100 µM in each case.
In the case of `O=C(O)/C=C/c1nc2ccccc2c(=O)o1`, the TGI in test [2], in test [3], in test [4], in [6], in test [7] and in [8] was above 100 µM each time.
With `O=C(CC1SC(=Nc2ccccc2Cl)NC1=O)Nc1ccc(Cl)cc1Cl` (configuration not stated), the TGI in [2], in test [4], in test [6], in [7] and in test [8] was above 100 µM each time.
Consider `N#Cc1ccc(C=NC23CC4CC(CC(C4)C2)C3)cc1`, for which the TGI in [1] is above 100 µM; in test [2], above 100 µM; in [3], above 100 µM; in test [4], above 100 µM; in test [5], above 100 µM; in test [6], 53 µM. For the same molecule, the TGI in test [7] and in test [8] was above 100 µM in each case.
Take `COc1ccc(/C=C2\CCC(C)(CN(C)C)C2=O)cc1OC` (configuration not stated): the TGI in test [2], in [3], in [4], in [5], in test [7] and in test [8] was above 100 µM throughout.
For `CC(C)=CC(=O)N(C)C1C2CN3CCC(O2)C13` (configuration not stated), the TGI in test [2], in [3], in test [4], in test [5], in [6] and in [7] was above 100 µM throughout. Moreover, in test [8], the TGI is above 100 µM.
As to `Cc1ccc(NC(=O)CC2C(=O)Nc3ccccc3S2(=O)=O)c(C)c1` (configuration not stated), the TGI in test [1] is 19.1 µM; in test [2], 28.7 µM; in test [3] it was 23.6 µM; in test [4], 73.8 µM; in test [5] it was 35.9 µM; in [6], 14 µM. The TGI worked out at 24.9 µM in test [7] and 35.9 µM in [8].
For `CCOC(=O)/C(C#N)=C(O)/C(=C\c1ccc(Br)cc1)NC(=O)c1ccccc1`, the TGI is above 100 µM in test [2]; above 100 µM in test [5]; above 100 µM in [6]; 34.5 µM in [7]; above 100 µM in [8].
In the case of `N#CC(c1ccccn1)c1nc2ccccc2[nH]1` (configuration not stated), the TGI in test [1], in [2], in test [3], in test [4], in test [5] and in test [6] was above 100 µM each time. In addition, the TGI in test [7] and in [8] was above 100 µM in each case.
Regarding `C=CNC(=O)NC(=O)CSc1nnc(-c2ccccc2NC(=O)C(F)(F)F)c(=O)[nH]1`, the TGI in test [1], in test [2], in test [3], in test [4], in test [5] and in test [7] was above 100 µM each time. In test [8], the TGI was above 100 µM.
In the case of `O=S(=O)(/C=C/C(=C/c1ccccc1)S(=O)(=O)c1ccccc1)c1ccccc1`, the TGI amounted to 4.41 µM in test [1]; 5.21 µM in test [2]; 2.85 µM in test [3]; 3.54 µM in [4]; 2.88 µM in [5]; 3.13 µM in test [7].
For `COc1ccc(N(CC(=O)NCCC[Te]c2ccccc2)C(=O)CNC(=O)OC(C)(C)C)cc1`, the GI50 in test [1] is 1.66 µM; in [2] it was 3.08 µM; in test [3], 2.56 µM; in test [4], 2.99 µM; in [5], 2.1 µM; in test [6], 2.08 µM. The GI50 in [9] is 1.72 µM; in test [7], 2.07 µM; in test [8], 2.29 µM. In addition, the TGI in test [1] is 7.75 µM; in test [2], 9.89 µM; in test [3], 10.6 µM; in [4], 6.77 µM; in test [5], 5.6 µM; in [6] it was 5.6 µM. The TGI in [9] came to 10.1 µM; in test [7] it was 6.45 µM; in test [8] it was 5.36 µM.
On to `NC(=O)C(=O)C1CCC2=C(Sc3ccccc3N2)C1=O` (configuration not stated), for which the TGI in [2], in [3], in [4], in test [5], in test [6] and in test [7] was above 100 µM each time.
Take `Cc1ccccc1NC(=O)C(=O)C(C#N)c1ccccc1C` (configuration not stated): the TGI in [1], in [2], in test [3], in [4], in test [5] and in test [6] was above 100 µM throughout. The TGI in [7] and in [8] was above 100 µM in each case.
In the case of `O=c1[nH]cc(F)c(=O)n1C1OC(CO)C(O)C1O` (configuration not stated), the TGI in test [2], in [3], in test [4], in test [5], in test [6] and in [8] was above 100 µM each time.
